{
  "source": "ChEMBL document CHEMBL5537150",
  "about": "“Synthesis of melampomagnolide B derivatives as potential anti-Triple Negative Breast Cancer agents” (Eur J Med Chem, 2024)",
  "key": {"MDA-MB-231 [1]": {"test_system": "MDA-MB-231", "assay": "Induction of cell cycle arrest in human MDA-MB-231 cells assessed as downregulation of Cdc2 protein expression incubated for 48 hrs by Western blotting analysis", "type": "functional, cell-based"}, "[2]": {"assay": "Toxicity in Balb/c mouse implanted with mouse 4T1 cells assessed as decrease in body weight at 10 mg/kg,ip administrated every two days for 20 days", "type": "organism-based", "conditions": "in vivo, 480 h, time 20 day"}, "MDA-MB-231 [3]": {"test_system": "MDA-MB-231", "assay": "Induction of apoptosis in human MDA-MB-231 cells assessed as downregulation of MCL-1 protein expression incubated for 48 hrs by Western blotting analysis", "type": "functional, cell-based"}, "MDA-MB-468 [4]": {"test_system": "MDA-MB-468", "assay": "Induction of cell cycle arrest in human MDA-MB-468 cells assessed as downregulation of Cdc2 protein expression incubated for 48 hrs by Western blotting analysis", "type": "functional, cell-based"}, "MDA-MB-468 [5]": {"test_system": "MDA-MB-468", "assay": "Induction of cell cycle arrest in human MDA-MB-468 cells assessed as increase in accumulation of cells at S phase at 0.2 to 2 uM incubated for 48 hrs by RNase/PI staining based flow cytometric analysis", "type": "functional", "conditions": "dose 0.2-2 µM"}, "MDA-MB-231 [6]": {"test_system": "MDA-MB-231", "assay": "Antimigratory activity in human MDA-MB-231 cells assessed as reduction in number of migrated cells incubated for 48 hrs by crystal violet staining based transwell assay", "type": "functional, cell-based"}, "MDA-MB-468 [7]": {"test_system": "MDA-MB-468", "assay": "Induction of apoptosis in human MDA-MB-468 cells at 5 uM incubated for 48 hrs by annexin-V-APC/PI staining based flow cytometric analysis (reference value: 5.38 +/- 1.63 %)", "type": "functional"}, "MDA-MB-231 [8]": {"test_system": "MDA-MB-231", "assay": "Inhibition of NF-kappaB signalling pathway in human MDA-MB-231 cells assessed as inhibition of p65 nuclear translocation at 0.2 to 2 uM incubated for 48 hrs by Western blotting analysis", "type": "cell-based", "conditions": "dose 0.2-2 µM"}, "MDA-MB-231 [9]": {"test_system": "MDA-MB-231", "assay": "Inhibition of NF-kappaB signalling pathway in human MDA-MB-231 cells assessed as effect on total p65 protein level at 0.2 to 2 uM incubated for 48 hrs by Western blotting analysis", "type": "cell-based", "conditions": "dose 0.2-2 µM"}, "4T1 [10]": {"test_system": "4T1", "assay": "Antitumor activity against mouse 4T1 cells implanted in Balb/c mouse assessed as inhibition of tumor weight at 10 mg/kg,ip administrated every two days for 20 days", "type": "functional, organism-based", "conditions": "time 20.0 day"}, "MDA-MB-468 [11]": {"test_system": "MDA-MB-468", "assay": "Antiproliferative activity against human MDA-MB-468 cells assessed as inhibition of cell growth incubated for 72 hrs by MTT assay", "type": "functional, cell-based", "conditions": "MDA-MB-468, 72 h"}, "MDA-MB-468 [12]": {"test_system": "MDA-MB-468", "assay": "Induction of apoptosis in human MDA-MB-468 cells at 2 uM incubated for 48 hrs by annexin-V-APC/PI staining based flow cytometric analysis (reference value: 5.38 +/- 1.63 %)", "type": "functional"}, "MDA-MB-231 [13]": {"test_system": "MDA-MB-231", "assay": "Induction of cell cycle arrest in human MDA-MB-231 cells assessed as increase in accumulation of cells at G2/M phase at 0.2 to 2 uM incubated for 48 hrs by RNase/PI staining based flow cytometric analysis", "type": "functional", "conditions": "dose 0.2-2 µM"}, "MDA-MB-231 [14]": {"test_system": "MDA-MB-231", "assay": "Induction of cell cycle arrest in human MDA-MB-231 cells assessed as increase in accumulation of cells at S phase at 0.2 to 2 uM incubated for 48 hrs by RNase/PI staining based flow cytometric analysis", "type": "functional", "conditions": "dose 0.2-2 µM"}, "SUM-159-PT": {"test_system": "SUM-159-PT", "assay": "Antiproliferative activity against human SUM159 cells assessed as inhibition of cell growth incubated for 72 hrs by MTT assay", "type": "functional, cell-based"}, "4T1 [15]": {"test_system": "4T1", "assay": "Antiproliferative activity against mouse 4T1 cells assessed as inhibition of cell growth incubated for 72 hrs by MTT assay", "type": "functional, cell-based", "conditions": "4T1, 72 h"}, "MDA-MB-231 [16]": {"test_system": "MDA-MB-231", "assay": "Induction of apoptosis in human MDA-MB-231 cells at 5 uM incubated for 48 hrs by annexin-V-APC/PI staining based flow cytometric analysis (reference value: 1.81 +/- 0.47 %)", "type": "functional"}, "MDA-MB-468 [17]": {"test_system": "MDA-MB-468", "assay": "Induction of apoptosis in human MDA-MB-468 cells at 1 uM incubated for 48 hrs by annexin-V-APC/PI staining based flow cytometric analysis (reference value: 5.38 +/- 1.63 %)", "type": "functional"}, "MDA-MB-231 [18]": {"test_system": "MDA-MB-231", "assay": "Induction of apoptosis in human MDA-MB-231 cells at 2 uM incubated for 48 hrs by annexin-V-APC/PI staining based flow cytometric analysis (reference value: 1.81 +/- 0.47 %)", "type": "functional"}, "MDA-MB-231 [19]": {"test_system": "MDA-MB-231", "assay": "Inhibition of NF-kappaB signalling pathway in human MDA-MB-231 cells assessed as downregulation of nuclear p65 expression at 0.2 to 2 uM incubated for 48 hrs by Western blotting analysis", "type": "cell-based", "conditions": "dose 0.2-2 µM"}, "MDA-MB-468 [20]": {"test_system": "MDA-MB-468", "assay": "Induction of apoptosis in human MDA-MB-468 cells at 0.5 uM incubated for 48 hrs by annexin-V-APC/PI staining based flow cytometric analysis (reference value: 5.38 +/- 1.63 %)", "type": "functional"}, "MDA-MB-468 [21]": {"test_system": "MDA-MB-468", "assay": "Induction of cell cycle arrest in human MDA-MB-468 cells assessed as decrease in accumulation of cells at G1 phase at 0.2 to 2 uM incubated for 48 hrs by RNase/PI staining based flow cytometric analysis", "type": "functional", "conditions": "dose 0.2-2 µM"}, "4T1 [22]": {"test_system": "4T1", "assay": "Antitumor activity against mouse 4T1 cells implanted in Balb/c mouse assessed as decrease in liver weight at 10 mg/kg,ip administrated every two days for 20 days", "type": "functional, organism-based", "conditions": "time 20.0 day"}, "MDA-MB-231 [23]": {"test_system": "MDA-MB-231", "assay": "Induction of cell cycle arrest in human MDA-MB-231 cells assessed as downregulation of Cyclin B1 protein expression incubated for 48 hrs by Western blotting analysis", "type": "functional, cell-based"}, "MDA-MB-231 [24]": {"test_system": "MDA-MB-231", "assay": "Antimigratory activity in human MDA-MB-231 cells assessed as downregulation of Vimentin protein expression incubated for 48 hrs by Western blotting analysis", "type": "functional, cell-based"}, "MDA-MB-231 [25]": {"test_system": "MDA-MB-231", "assay": "Induction of cell cycle arrest in human MDA-MB-231 cells assessed as decrease in accumulation of cells at G1 phase at 0.2 to 2 uM incubated for 48 hrs by RNase/PI staining based flow cytometric analysis", "type": "functional", "conditions": "dose 0.2-2 µM"}, "MDA-MB-231 [26]": {"test_system": "MDA-MB-231", "assay": "Induction of cell cycle arrest in human MDA-MB-231 cells assessed as downregulation of Cyclin E1 protein expression incubated for 48 hrs by Western blotting analysis", "type": "functional, cell-based"}, "MDA-MB-468 [27]": {"test_system": "MDA-MB-468", "assay": "Antimigratory activity in human MDA-MB-468 cells assessed as downregulation of N-cadherin protein expression incubated for 48 hrs by Western blotting analysis", "type": "functional, cell-based"}, "MDA-MB-231 [28]": {"test_system": "MDA-MB-231", "assay": "Induction of apoptosis in human MDA-MB-231 cells at 1 uM incubated for 48 hrs by annexin-V-APC/PI staining based flow cytometric analysis (reference value: 1.81 +/- 0.47 %)", "type": "functional"}, "MDA-MB-468 [29]": {"test_system": "MDA-MB-468", "assay": "Induction of apoptosis in human MDA-MB-468 cells at 0.2 uM incubated for 48 hrs by annexin-V-APC/PI staining based flow cytometric analysis (reference value: 5.38 +/- 1.63 %)", "type": "functional"}, "MDA-MB-231 [30]": {"test_system": "MDA-MB-231", "assay": "Induction of apoptosis in human MDA-MB-231 cells assessed as upregulation of Bax protein expression incubated for 48 hrs by Western blotting analysis", "type": "functional, cell-based"}, "MDA-MB-468 [31]": {"test_system": "MDA-MB-468", "assay": "Antimigratory activity in human MDA-MB-468 cells assessed as reduction in number of migrated cells incubated for 48 hrs by crystal violet staining based transwell assay", "type": "functional, cell-based"}, "MDA-MB-468 [32]": {"test_system": "MDA-MB-468", "assay": "Induction of cell cycle arrest in human MDA-MB-468 cells assessed as downregulation of Cyclin E1 protein expression incubated for 48 hrs by Western blotting analysis", "type": "functional, cell-based"}, "MDA-MB-231 [33]": {"test_system": "MDA-MB-231", "assay": "Antimigratory activity in human MDA-MB-231 cells assessed as downregulation of N-cadherin protein expression incubated for 48 hrs by Western blotting analysis", "type": "functional, cell-based"}, "MDA-MB-231 [34]": {"test_system": "MDA-MB-231", "assay": "Induction of cell cycle arrest in human MDA-MB-231 cells assessed as downregulation of Cdc25c protein expression incubated for 48 hrs by Western blotting analysis", "type": "functional, cell-based"}},
  "note": "The source made the active and inactive calls. The rule behind the calls is not given here.",
  "data": [
    {"compound": "C=C1C(=O)O[C@H]2[C@H]1CC/C(COc1ccc(-c3cc(=S)ss3)cc1)=C\\CC[C@@]1(C)O[C@@H]21", "values": [
      {"measurement": "Activity", "setting": "MDA-MB-231 [1]", "result": "Dose-Dependent Effect"},
      {"measurement": "Activity", "setting": "[2]", "result": "Toxic"},
      {"measurement": "Activity", "setting": "MDA-MB-231 [3]", "result": "Dose-Dependent Effect"},
      {"measurement": "Activity", "setting": "MDA-MB-468 [4]", "result": "Dose-Dependent Effect"},
      {"measurement": "Activity", "setting": "MDA-MB-468 [5]", "result": "Active"},
      {"measurement": "Activity", "setting": "MDA-MB-231 [6]", "result": "Dose-Dependent Effect"},
      {"measurement": "Activity", "setting": "MDA-MB-468 [7]", "result": 43.96, "unit": "%"},
      {"measurement": "inhibition", "setting": "MDA-MB-231 [8]", "result": "Active"},
      {"measurement": "inhibition", "setting": "MDA-MB-231 [9]", "result": "inactive"},
      {"measurement": "Activity", "setting": "4T1 [10]", "result": "Active"},
      {"measurement": "IC50", "setting": "MDA-MB-468 [11]", "result": 1.52, "unit": "µM"},
      {"measurement": "Activity", "setting": "MDA-MB-468 [12]", "result": 8.64, "unit": "%"},
      {"measurement": "Activity", "setting": "MDA-MB-231 [13]", "result": "Active"},
      {"measurement": "Activity", "setting": "MDA-MB-231 [14]", "result": "Active"},
      {"measurement": "IC50", "setting": "SUM-159-PT", "result": 1.51, "unit": "µM"},
      {"measurement": "IC50", "setting": "4T1 [15]", "result": 1.18, "unit": "µM"},
      {"measurement": "Activity", "setting": "MDA-MB-231 [16]", "result": 71.28, "unit": "%"},
      {"measurement": "Activity", "setting": "MDA-MB-468 [17]", "result": 6.4, "unit": "%"},
      {"measurement": "Activity", "setting": "MDA-MB-231 [18]", "result": 48.24, "unit": "%"},
      {"measurement": "inhibition", "setting": "MDA-MB-231 [19]", "result": "Active"},
      {"measurement": "Activity", "setting": "MDA-MB-468 [20]", "result": 5.77, "unit": "%"},
      {"measurement": "Activity", "setting": "MDA-MB-468 [21]", "result": "Active"},
      {"measurement": "Activity", "setting": "4T1 [22]", "result": "Active"},
      {"measurement": "Activity", "setting": "MDA-MB-231 [23]", "result": "Dose-Dependent Effect"},
      {"measurement": "Activity", "setting": "MDA-MB-231 [24]", "result": "Dose-Dependent Effect"},
      {"measurement": "Activity", "setting": "MDA-MB-231 [25]", "result": "Active"},
      {"measurement": "Activity", "setting": "MDA-MB-231 [26]", "result": "Dose-Dependent Effect"},
      {"measurement": "Activity", "setting": "MDA-MB-468 [27]", "result": "Dose-Dependent Effect"},
      {"measurement": "Activity", "setting": "MDA-MB-231 [28]", "result": 11.6, "unit": "%"},
      {"measurement": "Activity", "setting": "MDA-MB-468 [29]", "result": 4.32, "unit": "%"},
      {"measurement": "Activity", "setting": "MDA-MB-231 [30]", "result": "Dose-Dependent Effect"},
      {"measurement": "Activity", "setting": "MDA-MB-468 [31]", "result": "Dose-Dependent Effect"},
      {"measurement": "Activity", "setting": "MDA-MB-468 [32]", "result": "Dose-Dependent Effect"},
      {"measurement": "Activity", "setting": "MDA-MB-231 [33]", "result": "Dose-Dependent Effect"},
      {"measurement": "Activity", "setting": "MDA-MB-231 [34]", "result": "Dose-Dependent Effect"}
    ]}
  ]
}
